Blank lines part the entries; values can stand above or below the molecule they belong to. Active and inactive are the calls of the source. No cut-off for these calls is given here.
Assays:
[1] = molecular target: Signal transducer and activator of transcription 3 (Homo sapiens) (UniProt P40763); experiment: Inhibition of STAT3 in human HCT 116 cells co-transfected with pSTAT3-TA-Luc at 2 uM after 24 hrs by dual luciferase assay; type: cell-based
[2] = molecular target: Signal transducer and activator of transcription 3 (Homo sapiens) (UniProt P40763); experiment: Inhibition of STAT3 in human HCT 116 cells co-transfected with pSTAT3-TA-Luc after 24 hrs by dual luciferase assay; type: cell-based
HCT-116 [3] = experiment: Growth inhibition of human HCT116 cells assessed as cell proliferation at highest concentration after 24 hrs by WST-1 assay; type: functional
MDA-MB-468 [4] = experiment: Growth inhibition of human MDA-MB-468 cells assessed as cell proliferation at highest concentration after 24 hrs by WST-1 assay; type: functional
MDA-MB-231 [5] = experiment: Growth inhibition of human MDA-MB-231 cells assessed as cell proliferation at highest concentration after 24 hrs by WST-1 assay; type: functional
SW-620 [6] = experiment: Growth inhibition of human SW620 cells assessed as cell proliferation at highest concentration after 24 hrs by WST-1 assay; type: functional
HCT-116 [7] = experiment: Inhibition of human HCT116 cell proliferation at highest concentration after 48 hrs by WST-1 assay; type: functional, cell-based
MDA-MB-468 [8] = experiment: Inhibition of human MDA-MB-468 cell proliferation at highest concentration after 48 hrs by WST-1 assay; type: functional, cell-based
MDA-MB-231 [9] = experiment: Inhibition of human MDA-MB-231 cell proliferation at highest concentration after 48 hrs by WST-1 assay; type: functional, cell-based
SW-620 [10] = experiment: Inhibition of human SW620 cell proliferation at highest concentration after 48 hrs by WST-1 assay; type: functional, cell-based
HCT-116 [11] = experiment: Induction of apoptosis in human HCT116 cells assessed as rounded and floated morphology at 2.5 to 50 uM; type: functional, cell-based
HCT-116 [12] = experiment: Induction of apoptosis in human HCT116 cells assessed as increase in cleaved caspase-3 level at 10 uM by western blot analysis; type: functional, cell-based
HCT-116 [13] = experiment: Induction of apoptosis in human HCT116 cells assessed as increase in cleaved PARP level at 10 uM by western blot analysis; type: functional, cell-based

Signal transducer and activator of transcription 3 (Homo sapiens), sequence (P40763 whole entry): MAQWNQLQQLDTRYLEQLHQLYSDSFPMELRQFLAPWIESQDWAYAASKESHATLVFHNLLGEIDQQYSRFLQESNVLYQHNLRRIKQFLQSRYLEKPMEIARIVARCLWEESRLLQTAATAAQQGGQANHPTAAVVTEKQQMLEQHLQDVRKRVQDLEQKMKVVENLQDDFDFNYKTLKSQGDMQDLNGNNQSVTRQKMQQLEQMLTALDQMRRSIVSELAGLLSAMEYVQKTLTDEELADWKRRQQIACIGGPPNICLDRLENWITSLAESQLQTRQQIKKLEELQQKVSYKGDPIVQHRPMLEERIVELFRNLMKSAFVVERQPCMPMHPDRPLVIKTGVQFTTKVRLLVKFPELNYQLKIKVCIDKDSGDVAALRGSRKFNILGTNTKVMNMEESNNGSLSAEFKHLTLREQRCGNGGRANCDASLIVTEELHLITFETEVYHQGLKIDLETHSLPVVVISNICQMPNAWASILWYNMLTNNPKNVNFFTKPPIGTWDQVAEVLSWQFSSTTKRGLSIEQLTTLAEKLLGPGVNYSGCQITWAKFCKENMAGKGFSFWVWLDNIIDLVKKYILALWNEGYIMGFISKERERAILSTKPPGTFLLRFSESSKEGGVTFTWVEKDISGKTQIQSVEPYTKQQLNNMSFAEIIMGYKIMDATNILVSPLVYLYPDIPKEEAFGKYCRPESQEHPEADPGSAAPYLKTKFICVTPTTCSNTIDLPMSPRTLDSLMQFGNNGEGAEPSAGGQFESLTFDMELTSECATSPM

inhibition [1]: 32%
Structure (SMILES): CC(=O)Oc1ccc(-c2nonc2NC(=O)N(C)c2ccc(C(F)(F)F)cc2)cc1

inhibition [1]: 24%
Structure (SMILES): O=C(Nc1ccc(C(F)(F)F)cc1)Nc1nonc1-c1ccc(O)cc1

inhibition [1]: 2%
Structure (SMILES): Cc1nonc1NC(=O)Nc1ccccc1

inhibition [1]: 9%
Structure (SMILES): COC(=O)c1nonc1NC(=O)Cc1ccccc1

inhibition [1]: -3%
Structure (SMILES): O=S(=O)(Nc1nonc1-c1ccc(Cl)cc1)c1ccc(C(F)(F)F)cc1

inhibition [1]: 8%
Structure (SMILES): CN(C(=O)N(C)c1nonc1-c1ccc(Cl)cc1)c1ccc(C(F)(F)F)cc1

inhibition [1]: 26%
Structure (SMILES): CC(=O)Oc1ccc(-c2nonc2N(C)C(=O)N(C)c2ccc(C(F)(F)F)cc2)cc1

Continued, molecule first:

Structure (SMILES): Cc1nonc1NS(=O)(=O)Cc1ccccc1
inhibition [1]: 6%

Structure (SMILES): COC(=O)c1nonc1NS(=O)(=O)Cc1ccccc1
inhibition [1]: 7%

Structure (SMILES): O=C(Cc1ccccc1)Nc1nonc1CO
inhibition [1]: 14%

Structure (SMILES): O=C(NCc1ccccc1)Nc1nonc1-c1ccccc1
inhibition [1]: 11%

Structure (SMILES): Cc1nonc1NC(=O)Cc1ccccc1
inhibition [1]: 6%

Structure (SMILES): CN(C(=O)Nc1nonc1-c1ccc(Cl)cc1)c1ccccc1
inhibition [1]: 25%

Structure (SMILES): O=S(=O)(Cc1ccccc1)Nc1nonc1CO
inhibition [1]: -2%

Structure (SMILES): O=C(Nc1ccc(C(F)(F)F)cc1)Nc1nonc1-c1ccc(Cl)cc1
inhibition [1]: 45%
inhibition [2]: Dose-dependent effect
growth inhibition (GI) (HCT-116 [3]): 50%
growth inhibition (GI) (MDA-MB-468 [4]): 50%
growth inhibition (GI) (MDA-MB-231 [5]): 50%
growth inhibition (GI) (SW-620 [6]): 50%
inhibition (HCT-116 [7]): Active
inhibition (MDA-MB-468 [8]): Active
inhibition (MDA-MB-231 [9]): Active
inhibition (SW-620 [10]): Active
Activity (HCT-116 [11]): Active
Activity (HCT-116 [12]): Active
Activity (HCT-116 [13]): Active

Structure (SMILES): CN(C(=O)Nc1nonc1-c1ccc(O)cc1)c1ccc(C(F)(F)F)cc1
inhibition [1]: 51%

Structure (SMILES): O=C(Nc1nonc1-c1ccc(Cl)cc1)c1ccc(C(F)(F)F)cc1
inhibition [1]: -7%

Structure (SMILES): CN(C(=O)Nc1nonc1-c1ccc(OCc2ccccc2)cc1)c1ccc(C(F)(F)F)cc1
inhibition [1]: 21%

Structure (SMILES): O=C(Nc1ccccc1)Nc1nonc1-c1ccccc1
inhibition [1]: 36%

Structure (SMILES): O=C(Cc1ccccc1)Nc1nonc1-c1ccccc1
inhibition [1]: 11%

Source: ChEMBL document CHEMBL3217598, “Synthesis, modeling, and crystallographic study of 3,4-disubstituted-1,2,5-oxadiazoles and evaluation of their ability to decrease STAT3 activity” (Medchemcomm, 2010)
